Data from the NIST ThermoML archive (doi:10.1021/je0302001).

Assay: mn = molality of the nth substance listed, in mol/kg
Details: for surface tension liquid-gas: Ring tensiometer; for viscosity / speed of sound / mass density: 101.3 kPa, Liquid; for viscosity: Capillary tube (Ostwald / Ubbelohde) method

O=[N+]([O-])[O-].O=[N+]([O-])[O-].[Zn+2] [nitric acid, zinc salt] + O
Details | mass density [kg/m3] | speed of sound [m/s] | surface tension liquid-gas [mN/m] | viscosity [mPa·s]
293.15 K, m1 = 0.0875 | – | 1489.1 | – | –
293.15 K, m1 = 0.1329 | – | 1488.6 | – | 1.053
293.15 K, m1 = 0.2466 | – | 1494.3 | – | 1.086
293.15 K, m1 = 0.3388 | – | 1499 | – | 1.118
293.15 K, m1 = 0.6111 | – | 1514.8 | – | 1.21
293.15 K, m1 = 0.6405 | – | 1517 | – | 1.223
293.15 K, m1 = 1.113 | – | 1546 | – | 1.428
293.15 K, m1 = 1.258 | – | 1558.9 | – | 1.514
293.15 K, m1 = 1.551 | – | 1578.3 | – | 1.664
293.15 K, m1 = 1.906 | – | 1603.4 | – | 1.931
293.15 K, m1 = 2.145 | – | 1618.3 | – | 2.133
293.15 K, m1 = 2.29 | – | 1627.9 | – | 2.258
293.15 K, m1 = 2.292 | – | 1626.3 | – | –
293.15 K, m1 = 2.344 | – | 1631.6 | – | 2.273
293.15 K, m1 = 2.91 | – | 1666.2 | – | 2.846
293.15 K, m1 = 3.472 | – | 1697.2 | – | 3.61
293.15 K, m1 = 4.075 | – | 1724.9 | – | 4.615
293.15 K, m1 = 4.817 | – | 1752.8 | – | 6.303
293.15 K, m1 = 5.133 | – | – | 85.7 | –
293.15 K, m1 = 5.224 | – | 1762.1 | – | 7.371
293.15 K, m1 = 5.797 | – | 1777.6 | – | 9.658
293.15 K, m1 = 6.245 | – | – | 86.95 | –
293.15 K, m1 = 6.34 | – | 1787.7 | – | 11.98
293.15 K, m1 = 6.89 | – | 1796.2 | – | –
294.3 K, m1 = 0.0875 | 1010.8 | – | – | –
295.95 K, m1 = 4.075 | 1492.7 | – | – | –
296.1 K, m1 = 6.89 | 1712.4 | – | – | –
296.15 K, m1 = 0.2466 | 1034.3 | – | – | –
296.25 K, m1 = 4.817 | 1558.4 | – | – | –
296.5 K, m1 = 1.258 | 1177 | – | – | –
297.05 K, m1 = 0.3388 | 1047.7 | – | – | –
297.05 K, m1 = 1.906 | 1259.3 | – | – | –
297.5 K, m1 = 2.29 | 1304.8 | – | – | –
297.8 K, m1 = 0.6111 | 1087.1 | – | – | –
297.85 K, m1 = 0.1329 | 1016.6 | – | – | –
297.9 K, m1 = 2.292 | 1304.8 | – | – | –
297.95 K, m1 = 4.075 | 1491.1 | – | – | –
298 K, m1 = 2.344 | 1310.8 | – | – | –
298.05 K, m1 = 3.472 | 1432.6 | – | – | –
298.15 K, m1 = 0.0875 | – | 1502.8 | – | –
298.15 K, m1 = 0.1329 | – | 1501.5 | – | 0.937
298.15 K, m1 = 0.2466 | – | 1506.6 | – | 0.968
298.15 K, m1 = 0.3388 | – | 1512.2 | – | 0.997
298.15 K, m1 = 0.6111 | – | 1526.1 | – | 1.081
298.15 K, m1 = 0.6405 | – | 1527.3 | – | 1.093
298.15 K, m1 = 1.113 | – | 1554.3 | – | 1.278
298.15 K, m1 = 1.258 | – | 1570.5 | – | 1.355
298.15 K, m1 = 1.551 | – | 1584.3 | – | 1.489
298.15 K, m1 = 1.906 | – | 1606.9 | – | 1.725
298.15 K, m1 = 2.145 | – | 1620.9 | – | 1.903
298.15 K, m1 = 2.29 | – | 1633 | – | 2.009
298.15 K, m1 = 2.292 | – | 1628.3 | – | –
298.15 K, m1 = 2.344 | – | 1633.6 | – | 2.026
298.15 K, m1 = 2.91 | – | 1665.2 | – | 2.527
298.15 K, m1 = 3.472 | – | 1694.4 | – | 3.188
298.15 K, m1 = 4.075 | – | 1719.1 | – | 4.048
298.15 K, m1 = 4.817 | 1556.8 | 1748.7 | – | 5.473
298.15 K, m1 = 5.224 | – | 1755.5 | – | 6.362
298.15 K, m1 = 5.797 | – | 1769.4 | – | 8.228
298.15 K, m1 = 6.34 | – | 1777.8 | – | 10.12
298.15 K, m1 = 6.89 | – | 1783 | – | –
298.45 K, m1 = 0.0875 | 1009.7 | – | – | –
298.45 K, m1 = 5.224 | 1589.9 | – | – | –
298.65 K, m1 = 0.6405 | 1090.9 | – | – | –
298.75 K, m1 = 1.113 | 1156.5 | – | – | –
298.75 K, m1 = 2.91 | 1373.5 | – | – | –
298.85 K, m1 = 2.145 | 1286.9 | – | – | –
298.95 K, m1 = 1.258 | 1175.8 | – | – | –
299.05 K, m1 = 7.349 | 1738.2 | – | – | –
299.2 K, m1 = 1.906 | 1258 | – | – | –
299.6 K, m1 = 5.8 | 1633.1 | – | – | –
299.7 K, m1 = 0.2466 | 1033.3 | – | – | –
299.7 K, m1 = 1.551 | 1213.3 | – | – | –
299.7 K, m1 = 6.89 | 1708.8 | – | – | –
299.75 K, m1 = 2.29 | 1303.4 | – | – | –
300.05 K, m1 = 2.292 | 1303.4 | – | – | –
300.05 K, m1 = 3.472 | 1431.1 | – | – | –
300.05 K, m1 = 6.34 | 1671.6 | – | – | –
300.2 K, m1 = 2.344 | 1309.4 | – | – | –
300.35 K, m1 = 5.224 | 1588.3 | – | – | –
300.55 K, m1 = 0.3388 | 1046.5 | – | – | –
300.8 K, m1 = 0.6111 | 1085.9 | – | – | –
300.8 K, m1 = 2.91 | 1372.1 | – | – | –
301 K, m1 = 2.145 | 1285.5 | – | – | –
301.25 K, m1 = 1.113 | 1155.2 | – | – | –
301.35 K, m1 = 5.8 | 1631.5 | – | – | –
301.35 K, m1 = 6.89 | 1707.1 | – | – | –
301.4 K, m1 = 0.1329 | 1015.6 | – | – | –
301.4 K, m1 = 1.906 | 1256.6 | – | – | –
301.5 K, m1 = 1.258 | 1174.5 | – | – | –
301.55 K, m1 = 0.6405 | 1089.7 | – | – | –
301.85 K, m1 = 2.29 | 1302 | – | – | –
301.85 K, m1 = 4.075 | 1488 | – | – | –
301.85 K, m1 = 6.34 | 1669.9 | – | – | –
302 K, m1 = 1.551 | 1212 | – | – | –
302.1 K, m1 = 3.472 | 1429.5 | – | – | –
302.1 K, m1 = 4.817 | 1553.4 | – | – | –
302.2 K, m1 = 2.292 | 1302 | – | – | –
302.25 K, m1 = 2.344 | 1308.1 | – | – | –
302.25 K, m1 = 5.224 | 1586.5 | – | – | –
302.35 K, m1 = 0.0875 | 1008.6 | – | – | –
302.5 K, m1 = 7.349 | 1734.5 | – | – | –
302.9 K, m1 = 2.91 | 1370.6 | – | – | –
303.15 K, m1 = 0.0875 | – | 1514.4 | – | –
303.15 K, m1 = 0.1329 | – | 1513 | – | 0.841
303.15 K, m1 = 0.2263 | – | – | 71.91 | –
303.15 K, m1 = 0.2466 | 1032.1 | 1518.2 | – | 0.87
303.15 K, m1 = 0.334 | – | – | 71.94 | –
303.15 K, m1 = 0.3388 | – | 1520.9 | – | 0.896
303.15 K, m1 = 0.6111 | – | 1535.9 | – | 0.976
303.15 K, m1 = 0.6198 | – | – | 72.68 | –
303.15 K, m1 = 0.6405 | – | 1536.9 | – | 0.984
303.15 K, m1 = 0.8228 | – | – | 73.52 | –
303.15 K, m1 = 1.113 | – | 1561.1 | – | 1.15
303.15 K, m1 = 1.258 | – | 1571.6 | – | 1.221
303.15 K, m1 = 1.259 | – | – | 74.63 | –
303.15 K, m1 = 1.549 | – | – | 75.19 | –
303.15 K, m1 = 1.551 | – | 1589.3 | – | 1.34
303.15 K, m1 = 1.818 | – | – | 75.65 | –
303.15 K, m1 = 1.906 | – | 1610.2 | – | 1.549
303.15 K, m1 = 2.145 | 1284.1 | – | – | 1.711
303.15 K, m1 = 2.222 | – | – | 76.95 | –
303.15 K, m1 = 2.29 | – | – | – | 1.797
303.15 K, m1 = 2.344 | – | – | – | 1.819
303.15 K, m1 = 2.526 | – | – | 77.93 | –
303.15 K, m1 = 2.721 | – | – | 78.39 | –
303.15 K, m1 = 2.91 | – | – | – | 2.259
303.15 K, m1 = 3.426 | – | – | 80.38 | –
303.15 K, m1 = 3.472 | – | – | – | 2.839
303.15 K, m1 = 4.011 | – | – | 81.68 | –
303.15 K, m1 = 4.075 | – | – | – | 3.581
303.15 K, m1 = 4.231 | – | – | 82.16 | –
303.15 K, m1 = 4.817 | – | – | – | 4.795
303.15 K, m1 = 5.133 | – | – | 84.17 | –
303.15 K, m1 = 5.224 | – | – | – | 5.544
303.15 K, m1 = 5.797 | – | – | – | 7.1
303.15 K, m1 = 6.245 | – | – | 85.54 | –
303.15 K, m1 = 6.34 | – | – | – | 8.647
303.15 K, m1 = 6.89 | – | – | – | 10.85
303.15 K, m1 = 7.349 | – | – | – | 12.93
